Tested on: SARS-CoV-2 (USA-WA1/2020) in Calu-3 cells
Type: cell-based
Conditions: Calu-3, 48 h; for dsRNA signal, AU High: high dose (10 µM); for dsRNA signal, AU Low: low dose (100 nM)

Row | Compound | dsRNA signal, AU High | dsRNA signal, AU Low
1 | Nc1ncnc2c1c(-c1cccc(OCc3ccccc3)c1)cn2[C@H]1C[C@@H](CN2CCC2)C1 [NVP-AEW541] | 1274.0 AU | 19640.6 AU
2 | Cl.Nc1cc(C(F)(F)F)c(-c2cc(N3CCOCC3)nc(N3CCOCC3)n2)cn1 [NVP-BKM120 Hydrochloride] | 0.0 AU | 56514.5 AU
3 | Fc1cc(-c2cccc3ncc(-c4cnn(C5CCNCC5)c4)nc23)cc(F)c1CN1CCOCC1 [NVP-BSK805 2HCl] | 1810.2 AU | 2038.5 AU
4 | Cn1cc(-c2ccc3ncc(Cc4ccc5ncccc5c4)n3n2)cn1 [NVP-BVU972] | 9035.4 AU | 52705.1 AU
5 | CS(=O)(=O)N1CCC(NC(=O)c2[nH]ncc2NC(=O)c2c(Cl)cccc2Cl)CC1 [NVP-LCQ195] | 6040.0 AU | 35350.1 AU
6 | CN1C(=O)C(Cc2c[nH]c3ccccc23)NC1=S (stereo not shown) [Necrostatin-1] | 12590.5 AU | 10276.4 AU
7 | CCOc1cc2ncc(C#N)c(Nc3ccc(OCc4ccccn4)c(Cl)c3)c2cc1NC(=O)/C=C/CN(C)C [Neratinib (HKI-272)] | 1101.0 AU | 11881.7 AU
8 | Cc1cn(-c2cc(NC(=O)c3ccc(C)c(Nc4nccc(-c5cccnc5)n4)c3)cc(C(F)(F)F)c2)cn1.Cl.O [Nilotinib monohydrochloride monohydrate] | 2759.7 AU | 14574.2 AU
9 | Cc1cn(-c2cc(NC(=O)c3ccc(C)c(Nc4nccc(-c5cccnc5)n4)c3)cc(C(F)(F)F)c2)cn1 [Nilotinib(AMN-107)] | 28653.4 AU | 33622.0 AU
10 | Nc1nc(N)c(N=O)c(OCC2CCCCC2)n1 [Nu 6027] | 2596.9 AU | 10731.2 AU
11 | NCC(=O)Nc1ccc(-n2nc(C(F)(F)F)cc2-c2ccc3c(ccc4ccccc43)c2)cc1 [OSU-03012 (AR-12)] | 17565.3 AU | 17813.3 AU
12 | CC1(C)OC(=O)C=C[C@]2(C)[C@H]3CC[C@@]4(C)[C@H](c5ccoc5)OC(=O)[C@H]5O[C@]54[C@]3(C)C(=O)C[C@@H]12 [Obacunone] | 22534.9 AU | 63087.7 AU
13 | C=C1C(=O)[C@]23[C@H](O)[C@H]1CC[C@H]2[C@@]12CO[C@]3(O)[C@@H](O)[C@@H]1C(C)(C)CC[C@@H]2O [Oridonin] | 6061.2 AU | 25375.1 AU
14 | COC(=O)Nc1nc2ccc([S+]([O-])c3ccccc3)cc2[nH]1 (stereo not shown) [Oxfendazole] | 20012.9 AU | 47370.5 AU
15 | COc1cccc(-c2cc(=O)c3ccccc3o2)c1N [PD98059] | 33353.3 AU | 27955.5 AU
16 | COc1cc2ncnc(Nc3cccc(Br)c3)c2cc1OC.Cl [PD153035 hydrochloride] | 1669.4 AU | 28866.3 AU
17 | O=C(NOCC1CC1)c1ccc(F)c(F)c1Nc1ccc(I)cc1Cl [PD184352 (CI-1040)] | 0.0 AU | 41067.4 AU
18 | O=C(NOCC(O)CO)c1cc(Br)c(F)c(F)c1Nc1ccc(I)cc1F (stereo not shown) [PD318088] | 9157.7 AU | 11553.5 AU
19 | O=C(NOC[C@H](O)CO)c1ccc(F)c(F)c1Nc1ccc(I)cc1F [PD0325901] | 5022.8 AU | 48059.9 AU
20 | O=[N+]([O-])c1ccc(-c2nc(-c3ccncc3)c(-c3ccc(F)cc3)[nH]2)cc1 [PD 169316] | 4123.0 AU | 13218.6 AU
21 | CCN(CC)CCCCNc1ncc2cc(-c3cc(OC)cc(OC)c3)c(NC(=O)NC(C)(C)C)nc2n1 [PD 173074] | 6568.6 AU | 3359.6 AU

Row | Compound | dsRNA signal, AU High | dsRNA signal, AU Low
22 | Cc1cc(CS(=O)(=O)c2ccccc2)cc(OCc2ccc(CN3CCC[C@@H]3CO)cc2)c1 [PF-543] | 28127.6 AU | 66805.4 AU
23 | Cn1cc(-c2[nH]c3cc(NC(=O)[C@H](N)C4CCCCC4)cc4c3c2C=NNC4=O)cn1 [PF-477736] | 45938.3 AU | 24364.8 AU
24 | CN(c1ncccc1CNc1nc(Nc2ccc3c(c2)CC(=O)N3)ncc1C(F)(F)F)S(C)(=O)=O [PF-562271] | 0.0 AU | 690.0 AU
25 | Nc1nccc(-c2c(-c3ccc(F)cc3)ncn2C2CCCCC2)n1 [PF-670462] | 1350.7 AU | 18716.0 AU
26 | OCCn1cc(-c2cnc3nnn(Cc4ccc5ncccc5c4)c3n2)cn1 [PF-04217903] | 9610.7 AU | 2049.9 AU
27 | N#Cc1cccc(-c2c[nH]c3ncnc(N4CCOCC4)c23)c1 [PF-06447475] | 53174.2 AU | 40604.3 AU
28 | CNC(=O)c1ccc(C)c(-n2c(C)cc(OCc3ccc(F)cc3F)c(Br)c2=O)c1 [PH-797804] | 733.9 AU | 57938.0 AU
29 | Cc1[nH]c(/C=C2\C(=O)Nc3ccc(S(=O)(=O)Cc4c(Cl)cccc4Cl)cc32)c(C)c1C(=O)N1CCC[C@@H]1CN1CCCC1 [PHA-665752] | 34815.2 AU | 11571.8 AU
30 | Oc1cccc(-c2nc(N3CCOCC3)c3oc4ncccc4c3n2)c1 [PI-103] | 0.0 AU | 40731.1 AU
31 | Fc1ccc2[nH]ccc2c1-c1nc(N2CCOCC2)c2sc(CN3CCN(CC4CC4)CC3)cc2n1 [PI-3065] | 625.6 AU | 44145.1 AU
32 | Cc1ccc([N+](=O)[O-])cc1S(=O)(=O)N(C)/N=C/c1cnc2ccc(Br)cn12 [PIK-75] | 6934.4 AU | 3754.5 AU
33 | FC(F)(F)c1ccc(CNc2ccc(Cc3c[nH]c4ncccc34)cn2)cc1 [PLX647] | 24285.0 AU | 52941.2 AU
34 | CC(C)n1nc(-c2cc3cc(O)ccc3[nH]2)c2c(N)ncnc21 [PP242] | 7321.2 AU | 32614.7 AU
35 | CC(C)(C)n1nc(-c2ccc(Cl)cc2)c2c(N)ncnc21 [PP 2 (AG 1879)] | 53589.5 AU | 40414.9 AU
36 | CCOC(=O)c1ccc(N2NC(=O)/C(=C/c3ccc([N+](=O)[O-])o3)C2=O)cc1 [PYR-41] | 41809.3 AU | 6659.6 AU
37 | COc1ccc(COc2cc3oc(=O)c4cc(C(C)O)ccc4c3cc2OC)cc1 (stereo not shown) [Palomid 529] | 5778.6 AU | 4358.2 AU
38 | Cc1ccc(Nc2nccc(N(C)c3ccc4c(C)n(C)nc4c3)n2)cc1S(N)(=O)=O [Pazopanib (GW-786034)] | 41143.8 AU | 22671.3 AU
39 | FC(F)(F)c1ccc(CNc2ccc(Cc3c[nH]c4ncc(Cl)cc34)cn2)cn1 [Pexidartinib (PLX3397)] | 64762.3 AU | 40586.0 AU
40 | Oc1cc(O)cc(/C=C/c2ccc(O)c(O)c2)c1 [Piceatannol] | 12025.1 AU | 48262.2 AU
41 | O=C(NC[C@H](O)CO)c1ccncc1Nc1ccc(I)cc1F [Pimasertib (AS-703026)] | 11387.3 AU | 3667.2 AU

— article PMC12142043, “Cell-based high-content approach for SARS-CoV-2 neutralization identifies unique monoclonal antibodies and PI3K pathway inhibitors” (Frontiers in Cell and Developmental Biology, 2025)
